Each structure is given as a SMILES string.

In this experiment the test system is HCV genotype 1b replicon. The experiment in a line: HCV replicon assay, cell ELISA with antibody to replicon-encoded NS3/4A (genotype 1b replicon). As to conditions: Hepatitis C virus, 96 h, read-out: Replicon 1b IC50 (nM), HCV genotype 1b replicon cells, 96 hours incubation, NS3/4A ELISA readout. It is filed as cell-based, hepatitis C virus. As to the method: The HCV NS5B inhibitory activity of the present compounds may be tested using assays known in the art. The HCV NS5B polymerase inhibitors described herein have activities in a genotype 1b replicon assay as described in the Examples. The assay is performed by incubating a replicon harboring cell-line in the presence of inhibitor for a set period of time and measuring the effect of the inhibitor on HCV replicon replication either directly by quantifying replicon RNA level, or indirectly by measuring enzymatic activity of a co-encoded reporter enzyme such as luciferase or β-lactamase. By performing a series of such measurements at different inhibitor concentrations, the effective inhibitory concentration of the inhibitor (EC50 or EC90) is determined. See Jan M. Vrolijk et al., A replicons-based bioassay for the measurement of interferons in patients with chronic hepatitis C, 110 J. VIROLOGICAL METHODS 201 (2003). Such assays may also be run in an automated format for high through-put screening. See Paul Zuck et al., A cell-based β-lactamase reporter gene assay for the identification of inhibitors of hepatitis C virus replication, 334 ANALYTICAL BIOCHEMISTRY 344 (2004).
Measurement of inhibition by compounds was performed using the HCV replicon system. Several different replicons encoding different HCV genotypes or mutations were used. In addition, potency measurements were made using different formats of the replicon assay, including different ways of measurements and different plating formats. See Jan M. Vrolijk et al., A replicons-based bioassay for the measurement of interferons in patients with chronic hepatitis C, 110 J. VIROLOGICAL METHODS 201 (2003); Steven S. Carroll et al., Inhibition of Hepatitis C Virus RNA Replication by 2′-Modified Nucleoside Analogs, 278(14) J. BIOLOGICAL CHEMISTRY 11979 (2003). However, the underlying principles are common to all of these determinations, and are outlined below.
Stable neomycin phosphotransferase encoding replicons-harboring cell lines were used, so all cell lines were maintained under G418 selection prior to the assay. Potency was determined using a cell ELISA assay with an antibody to the replicons encoded NS3/4a protease. See Caterina Trozzi et al., In Vitro Selection and Characterization of Hepatitis C Virus Serine Protease Variants Resistant to an Active-Site Peptide Inhibitor, 77(6) J. Virol. 3669 (2003). To initiate an assay, replicon cells were plated in the presence of a dilution series of test compound in the absence of G418. Typically, the assays were performed in a 96-well plate formate for manual operation, or a 384-well plate format for automated assay. Replicon cells and compound were incubated for 96 hours. At the end of the assay, cells were washed free of media and compound, and the cells were then lysed. RNA was quantified indirectly through detection of replicon-encoded NS3/4A protein levels, through an ELISA-based assay with an antibody specific for NS3/4A. IC50 determinations were calculated as a percentage of a DMSO control by fitting the data to a four-parameter fit function and the data obtained is provided in the table below.

In the case of `CNC(=O)c1c(-c2ccc(F)cc2)oc2cc(N3C(=O)O[C@H](c4ccccc4)[C@@H]3C)c(-c3ccccc3)cc12` [Example 77, 2-(4-fluorophenyl)-N-methyl-6-[(4S,5R)-4-methyl-2-oxo-5-phenyl-1,3-oxazolidin-3-yl]-5-phenyl-1-benzofuran-3-carboxamide], the IC50 came out at 101 nM.
Then `CNC(=O)c1c(-c2ccc(F)cc2)oc2cc(N(C)S(C)(=O)=O)c(-c3ccccc3F)cc12` [Example 78, 5-(2-fluorophenyl)-2-(4-fluorophenyl)-N-methyl-6-[methyl(methylsulfonyl)amino]-1-benzofuran-3-carboxamide], with 215 nM.
`CNC(=O)c1c(-c2ccc(F)cc2)oc2cc(N(C)S(C)(=O)=O)c(-c3ccccc3OC)cc12` [Example 79, 2-(4-fluorophenyl)-5-(2-methoxyphenyl)-N-methyl-6-[methyl (methylsulfonyl)amino]-1-benzofuran-3-carboxamide]: the IC50 was 320 nM.
In the case of `CNC(=O)c1c(-c2ccc(F)cc2)oc2cc(N(C)S(C)(=O)=O)c(-c3ccccc3C)cc12` [Example 80, 2-(4-fluorophenyl)-N-methyl-6-[methyl (methylsulfonyl)amino]-5-(2-methylphenyl)-1-benzofuran-3-carboxamide], the IC50 came to 241 nM.
In the case of `CNC(=O)c1c(-c2ccc(F)cc2)oc2cc(N(C)S(C)(=O)=O)c(-c3cccc(C)c3)cc12` [Example 81, 2-(4-fluorophenyl)-N-methyl-6-[methyl (methylsulfonyl)amino]-5-(3-methylphenyl)-1-benzofuran-3-carboxamide], the IC50 was found to be 117 nM.
Then `CNC(=O)c1c(-c2ccc(F)cc2)oc2cc(N(C)S(C)(=O)=O)c(-c3ccc(C)cc3)cc12` [Example 82, 2-(4-fluorophenyl)-N-methyl-6-[methyl (methylsulfonyl)amino]-5-(4-methylphenyl)-1-benzofuran-3-carboxamide], with 53 nM; and `CNC(=O)c1c(-c2ccc(F)cc2)oc2cc(N(C)S(C)(=O)=O)c(-c3ccccc3N(C)S(C)(=O)=O)cc12` [Example 83, 2-(4-fluorophenyl)-N-methyl-6-[methyl (methylsulfonyl)amino]-5-{2-[methyl (methylsulfonyl)amino]phenyl}-1-benzofuran-3-carboxamide], with 232 nM.
In the case of `CNC(=O)c1c(-c2ccc(F)cc2)oc2cc(N(C)S(C)(=O)=O)c(-c3cccc(C#N)c3)cc12` [Example 84, 5-(3-cyanophenyl)-2-(4-fluorophenyl)-N-methyl-6-[methyl (methylsulfonyl)amino]-1-benzofuran-3-carboxamide], the IC50 amounted to 107 nM.
`CNC(=O)c1c(-c2ccc(F)cc2)oc2cc(N(C)S(C)(=O)=O)c(-c3ccc(C#N)cc3)cc12` [Example 85, 5-(4-cyanophenyl)-2-(4-fluorophenyl)-N-methyl-6-[methyl (methylsulfonyl)amino]-1-benzofuran-3-carboxamide]: the IC50 was found to be 43 nM.
With `CNC(=O)c1c(-c2ccc(F)cc2)oc2cc(N(C)S(C)(=O)=O)c(-c3cccc(F)c3)cc12` [Example 86, 5-(3-fluorophenyl)-2-(4-fluorophenyl)-N-methyl-6-[methyl (methylsulfonyl)amino]-1-benzofuran-3-carboxamide], the IC50 came to 28 nM.
Under `CNC(=O)c1c(-c2ccc(F)cc2)oc2cc(N(C)S(C)(=O)=O)c(-c3ccc(F)cc3)cc12` [Example 87, 2,5-bis(4-fluorophenyl)-N-methyl-6-[methyl (methylsulfonyl)amino]-1-benzofuran-3-carboxamide] stands 39 nM.
As to `CNC(=O)c1c(-c2ccc(F)cc2)oc2cc(N(C)S(C)(=O)=O)c(-c3cccc(OC)c3)cc12` [Example 88, 2-(4-fluorophenyl)-5-(3-methoxyphenyl)-N-methyl-6-[methyl (methylsulfonyl)amino]-1-benzofuran-3-carboxamide], the IC50 is 52 nM.
Under `CNC(=O)c1c(-c2ccc(F)cc2)oc2cc(N(C)S(C)(=O)=O)c(-c3ccc(OC)cc3)cc12` [Example 89, 2-(4-fluorophenyl)-5-(4-methoxyphenyl)-N-methyl-6-[methyl (methylsulfonyl)amino]-1-benzofuran-3-carboxamide] stands 23 nM.
Then `CONC(=O)c1c(-c2ccc(F)cc2)oc2cc(N(C)S(C)(=O)=O)c(-c3ccccc3F)cc12` [Example 90, 5(2-fluorophenyl)-2-(4-fluorophenyl)-N-methoxy-6-[methyl(methylsulfonyl)amino]-1-benzofuran-3-carboxamide], with 197 nM; and `CONC(=O)c1c(-c2ccc(F)cc2)oc2cc(N(C)S(C)(=O)=O)c(-c3ccccc3OC)cc12` [Example 91, 2-(4-fluorophenyl)-N-methoxy-5-(2-methoxyphenyl)-6-[methyl (methylsulfonyl)amino]-1-benzofuran-3-carboxamide], with 342 nM; and `CONC(=O)c1c(-c2ccc(F)cc2)oc2cc(N(C)S(C)(=O)=O)c(-c3cccc(C)c3)cc12` [Example 92, 2-(4-fluorophenyl)-N-methoxy-6-[methyl (methylsulfonyl)amino]-5-(3-methylphenyl)-1-benzofuran-3-carboxamide], with 252 nM.
Then `CONC(=O)c1c(-c2ccc(F)cc2)oc2cc(N(C)S(C)(=O)=O)c(-c3ccc(C)cc3)cc12` [Example 93, 2-(4-fluorophenyl)-N-methoxy-6-[methyl (methylsulfonyl)amino]-5-(4-methylphenyl)-1-benzofuran-3-carboxamide], with 54 nM; and `CONC(=O)c1c(-c2ccc(F)cc2)oc2cc(N(C)S(C)(=O)=O)c(-c3cccc(C#N)c3)cc12` [Example 94, 5-(3-cyanophenyl)-2-(4-fluorophenyl)-N-methoxy-6-[methyl (methylsulfonyl)amino]-1-benzofuran-3-carboxamide], with 450 nM; and `CONC(=O)c1c(-c2ccc(F)cc2)oc2cc(N(C)S(C)(=O)=O)c(-c3cccc(F)c3)cc12` [Example 95, 5-(3-fluorophenyl)-2-(4-fluorophenyl)-N-methoxy-6-[methyl (methylsulfonyl)amino]-1-benzofuran-3-carboxamide], with 130 nM.
For `CONC(=O)c1c(-c2ccc(F)cc2)oc2cc(N(C)S(C)(=O)=O)c(-c3ccc(F)cc3)cc12` [Example 96, 2,5-bis(4-fluorophenyl)-N-methoxy-6-[methyl (methylsulfonyl)amino]-1-benzofuran-3-carboxamide], the IC50 is 1230 nM.
Then `CONC(=O)c1c(-c2ccc(F)cc2)oc2cc(N(C)S(C)(=O)=O)c(-c3cccc(OC)c3)cc12` [Example 97, 2-(4-fluorophenyl)-N-methoxy-5-(3-methoxyphenyl)-6-[methyl (methylsulfonyl)amino]-1-benzofuran-3-carboxamide], with 126 nM; and `CONC(=O)c1c(-c2ccc(F)cc2)oc2cc(N(C)S(C)(=O)=O)c(-c3ccc(OC)cc3)cc12` [Example 98, 2-(4-fluorophenyl)-N-methoxy-5-(4-methoxyphenyl)-6-[methyl (methylsulfonyl)amino]-1-benzofuran-3-carboxamide], with 72 nM; and `CONC(=O)c1cccc(-c2cc3c(C(=O)NOC)c(-c4ccc(F)cc4)oc3cc2N(C)S(C)(=O)=O)c1` [Example 99, 2-(4-fluorophenyl)-N-methoxy-5-[3-(methoxycarbamoyl)phenyl]-6-[methyl(methylsulfonyl)amino]-1-benzofuran-3-carboxamide], with 623 nM.
Then `CNC(=O)c1cccc(-c2cc3c(C(=O)NC)c(-c4ccc(F)cc4)oc3cc2N(C)S(C)(=O)=O)c1` [Example 100, 2-(4-fluorophenyl)-N-methyl-5-[3-(methylcarbamoyl)phenyl]-6-[methyl(methylsulfonyl)amino]-1-benzofuran-3-carboxamide], with 45 nM; and `CNC(=O)c1c(-c2ccc(F)cc2)oc2cc(N(C)S(C)(=O)=O)c(-c3cccc(CN)c3)cc12` [Example 101, 5-[3-(aminomethyl)phenyl]-2-(4-fluorophenyl)-N-methyl-6-[methyl(methylsulfonyl)amino]-1-benzofuran-3-carboxamide], with 505 nM.

For the origin of these results see patent US20120328569A1, “INHIBITORS OF HEPATITIS C VIRUS NS5B POLYMERASE” (priority 2010, published 2012).
